Laboratory results published in the supplement of paper PMC10307832.

Experiments:
Test in all cases: relative viability (nuclei count vs DMSO), 5 days (fraction); higher = more cells survive
Calu-6 = tested on: Calu-6
In short: (§1)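 Lung cancer cell lines were pin-tool dosed in 1536-well plates on the day after seeding, with either a lone drug or a fixed anchor-drug dose plus five library-drug doses (not always all listed) in √10 steps. Nuclei were counted on 4× images after 5 days. Relative viability is the ratio of treated-well to vehicle-well nuclei counts, with each value a median of duplicate plates.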

NCI-H522 = tested on: NCI-H522
In short: as §1

NCI-H520 = tested on: NCI-H520
In short: as §1

NCI-H1299 = tested on: NCI-H1299
In short: as §1

NCI-H1355 = tested on: NCI-H1355
In short: as §1

NCI-H1648 = tested on: NCI-H1648
In short: as §1

EBC-1 = tested on: EBC-1
In short: as §1

A549 = tested on: A549
In short: as §1

NCI-H1703 = tested on: NCI-H1703
In short: as §1

IA-LM = tested on: IA-LM
In short: as §1

LCLC-103H = tested on: LCLC-103H
In short: as §1

## CC1(C)CCC(c2ccc(Cl)cc2)=C(CN2CCN(c3ccc(C(=O)NS(=O)(=O)c4ccc(N[C@H](CCN5CCOCC5)CSc5ccccc5)c(S(=O)(=O)C(F)(F)F)c4)cc3)CC2)C1 [Navitoclax] + O=C(c1cc(Cc2n[nH]c(=O)c3ccccc23)ccc1F)N1CCN(C(=O)C2CC2)CC1 [Olaparib] (partner 8 µM)
Calu-6; first compound 0.005 µM
  relative viability: 0.57
Calu-6; first compound 0.01581 µM
  relative viability: 0.518
Calu-6; first compound 0.05 µM
  relative viability: 0.558
Calu-6; first compound 0.1581 µM
  relative viability: 0.457
Calu-6; first compound 0.5 µM
  relative viability: 0.478
NCI-H522; first compound 0.005 µM
  relative viability: 0.657
NCI-H522; first compound 0.01581 µM
  relative viability: 0.745
NCI-H522; first compound 0.05 µM
  relative viability: 0.757
NCI-H522; first compound 0.1581 µM
  relative viability: 0.542
NCI-H522; first compound 0.5 µM
  relative viability: 0.62
NCI-H520; first compound 0.005 µM
  relative viability: 0.346
NCI-H520; first compound 0.01581 µM
  relative viability: 0.299
NCI-H520; first compound 0.05 µM
  relative viability: 0.336
NCI-H520; first compound 0.1581 µM
  relative viability: 0.318
NCI-H520; first compound 0.5 µM
  relative viability: 0.33
NCI-H1299; first compound 0.005 µM
  relative viability: 0.943
NCI-H1299; first compound 0.01581 µM
  relative viability: 1
NCI-H1299; first compound 0.05 µM
  relative viability: 0.949
NCI-H1299; first compound 0.1581 µM
  relative viability: 0.977
NCI-H1299; first compound 0.5 µM
  relative viability: 0.956
NCI-H1355; first compound 0.005 µM
  relative viability: 0.74
NCI-H1355; first compound 0.01581 µM
  relative viability: 0.731
NCI-H1355; first compound 0.05 µM
  relative viability: 0.734
NCI-H1355; first compound 0.1581 µM
  relative viability: 0.694
NCI-H1355; first compound 0.5 µM
  relative viability: 0.806
NCI-H1648; first compound 0.005 µM
  relative viability: 0.632
NCI-H1648; first compound 0.01581 µM
  relative viability: 1.06
NCI-H1648; first compound 0.1581 µM
  relative viability: 0.922
NCI-H1648; first compound 0.5 µM
  relative viability: 1.03
EBC-1; first compound 0.005 µM
  relative viability: 0.745
EBC-1; first compound 0.01581 µM
  relative viability: 0.864
EBC-1; first compound 0.05 µM
  relative viability: 0.658
EBC-1; first compound 0.1581 µM
  relative viability: 0.683
EBC-1; first compound 0.5 µM
  relative viability: 0.663
A549; first compound 0.005 µM
  relative viability: 0.37
A549; first compound 0.01581 µM
  relative viability: 0.33
A549; first compound 0.05 µM
  relative viability: 0.119
A549; first compound 0.1581 µM
  relative viability: 0.33
A549; first compound 0.5 µM
  relative viability: 0.302
NCI-H1703; first compound 0.005 µM
  relative viability: 0.536
NCI-H1703; first compound 0.01581 µM
  relative viability: 0.626
NCI-H1703; first compound 0.05 µM
  relative viability: 0.508
NCI-H1703; first compound 0.1581 µM
  relative viability: 0.512
NCI-H1703; first compound 0.5 µM
  relative viability: 0.536
IA-LM; first compound 0.005 µM
  relative viability: 0.814
IA-LM; first compound 0.01581 µM
  relative viability: 0.836
IA-LM; first compound 0.05 µM
  relative viability: 0.792
IA-LM; first compound 0.1581 µM
  relative viability: 0.789
IA-LM; first compound 0.5 µM
  relative viability: 0.866
LCLC-103H; first compound 0.005 µM
  relative viability: 0.715
LCLC-103H; first compound 0.01581 µM
  relative viability: 0.817
LCLC-103H; first compound 0.05 µM
  relative viability: 0.729
LCLC-103H; first compound 0.1581 µM
  relative viability: 0.738
LCLC-103H; first compound 0.5 µM
  relative viability: 0.705

## O=C(O)c1ccc(-c2c[nH]c3ncc(-c4ccccc4)cc23)cc1C1CCCC1 + NC(=O)Nc1cc(-c2cccc(F)c2)sc1C(=O)N[C@H]1CCCNC1 [AZD7762] (partner 0.2 µM)
NCI-H522; first compound 0.04 µM
  relative viability: 0.662
NCI-H522; first compound 0.1265 µM
  relative viability: 0.896
NCI-H522; first compound 0.4 µM
  relative viability: 0.785
NCI-H522; first compound 1.265 µM
  relative viability: 0.882
NCI-H1355; first compound 0.04 µM
  relative viability: 0.729
NCI-H1355; first compound 0.1265 µM
  relative viability: 0.912
NCI-H1355; first compound 0.4 µM
  relative viability: 0.856
NCI-H1355; first compound 1.265 µM
  relative viability: 0.703
NCI-H1648; first compound 0.04 µM
  relative viability: 0.687
NCI-H1648; first compound 0.1265 µM
  relative viability: 0.716
NCI-H1648; first compound 0.4 µM
  relative viability: 0.82
NCI-H1703; first compound 0.1265 µM
  relative viability: 0.0651
NCI-H1703; first compound 0.4 µM
  relative viability: 0.148
NCI-H1703; first compound 1.265 µM
  relative viability: 0.135
LCLC-103H; first compound 0.04 µM
  relative viability: 0.832
LCLC-103H; first compound 0.1265 µM
  relative viability: 0.822
LCLC-103H; first compound 0.4 µM
  relative viability: 0.846
LCLC-103H; first compound 1.265 µM
  relative viability: 0.759

## NC(=O)Nc1cc(-c2cccc(F)c2)sc1C(=O)N[C@H]1CCCNC1 [AZD7762] + Nc1ncn([C@H]2C[C@H](O)[C@@H](CO)O2)c(=O)n1 [Decitabine] (partner 2 µM)
NCI-H522; first compound 0.01 µM
  relative viability: 0.668
NCI-H522; first compound 0.03162 µM
  relative viability: 0.709
NCI-H522; first compound 0.1 µM
  relative viability: 0.714
NCI-H522; first compound 0.3162 µM
  relative viability: 0.689
NCI-H522; first compound 1 µM
  relative viability: 0.686
NCI-H520; first compound 0.01 µM
  relative viability: 0.521
NCI-H520; first compound 0.03162 µM
  relative viability: 0.522
NCI-H520; first compound 0.1 µM
  relative viability: 0.52
NCI-H520; first compound 0.3162 µM
  relative viability: 0.475
NCI-H520; first compound 1 µM
  relative viability: 0.246
NCI-H1355; first compound 0.01 µM
  relative viability: 0.352
NCI-H1355; first compound 0.03162 µM
  relative viability: 0.385
NCI-H1355; first compound 0.1 µM
  relative viability: 0.317
NCI-H1355; first compound 0.3162 µM
  relative viability: 0.407
NCI-H1355; first compound 1 µM
  relative viability: 0.475
NCI-H1648; first compound 0.01 µM
  relative viability: 0.512
NCI-H1648; first compound 0.03162 µM
  relative viability: 0.671
NCI-H1648; first compound 0.1 µM
  relative viability: 0.415
NCI-H1648; first compound 0.3162 µM
  relative viability: 0.462
NCI-H1648; first compound 1 µM
  relative viability: 0.437
A549; first compound 0.01 µM
  relative viability: 0.305
A549; first compound 0.03162 µM
  relative viability: 0.252
A549; first compound 0.1 µM
  relative viability: 0.27
A549; first compound 0.3162 µM
  relative viability: 0.281
A549; first compound 1 µM
  relative viability: 0.202
LCLC-103H; first compound 0.01 µM
  relative viability: 0.766
LCLC-103H; first compound 0.03162 µM
  relative viability: 0.824
LCLC-103H; first compound 0.1 µM
  relative viability: 0.764
LCLC-103H; first compound 0.3162 µM
  relative viability: 0.725
LCLC-103H; first compound 1 µM
  relative viability: 0.829

## CC1(C)CCC(c2ccc(Cl)cc2)=C(CN2CCN(c3ccc(C(=O)NS(=O)(=O)c4ccc(N[C@H](CCN5CCOCC5)CSc5ccccc5)c(S(=O)(=O)C(F)(F)F)c4)cc3)CC2)C1 [Navitoclax] + CC(=O)c1c(C)c2cnc(Nc3ccc(N4CCNCC4)cn3)nc2n(C2CCCC2)c1=O [Palbociclib] (partner 0.5 µM)
NCI-H522; first compound 0.005 µM
  relative viability: 1.02
NCI-H522; first compound 0.01581 µM
  relative viability: 1.05
NCI-H522; first compound 0.05 µM
  relative viability: 1.06
NCI-H522; first compound 0.1581 µM
  relative viability: 0.735
NCI-H522; first compound 0.5 µM
  relative viability: 0.942
NCI-H520; first compound 0.005 µM
  relative viability: 0.273
NCI-H520; first compound 0.01581 µM
  relative viability: 0.25
NCI-H520; first compound 0.05 µM
  relative viability: 0.18
NCI-H520; first compound 0.1581 µM
  relative viability: 0.182
NCI-H520; first compound 0.5 µM
  relative viability: 0.217
NCI-H1355; first compound 0.005 µM
  relative viability: 0.381
NCI-H1355; first compound 0.01581 µM
  relative viability: 0.438
NCI-H1355; first compound 0.05 µM
  relative viability: 0.429
NCI-H1355; first compound 0.1581 µM
  relative viability: 0.385
NCI-H1355; first compound 0.5 µM
  relative viability: 0.409
NCI-H1648; first compound 0.005 µM
  relative viability: 0.274
NCI-H1648; first compound 0.01581 µM
  relative viability: 0.269
NCI-H1648; first compound 0.1581 µM
  relative viability: 0.289
NCI-H1648; first compound 0.5 µM
  relative viability: 0.328
LCLC-103H; first compound 0.005 µM
  relative viability: 0.453
LCLC-103H; first compound 0.01581 µM
  relative viability: 0.487
LCLC-103H; first compound 0.05 µM
  relative viability: 0.486
LCLC-103H; first compound 0.1581 µM
  relative viability: 0.443
LCLC-103H; first compound 0.5 µM
  relative viability: 0.418
